Test results: publication PMC12281487, “Discovery and Validation of a Novel Class of Necroptosis Inhibitors Targeting RIPK1” (ACS Chemical Biology, 2025)

What was measured:
RIPK1 = molecular target: T1, RIPK1 (Homo sapiens, UniProt Q13546); test: Streptavidin mass shift assay (photoaffinity labeling, target engagement) in I2.1 cells; assay type: cell-based; details: competition assay, pretreatment before 7PQYnD photoaffinity labeling
T1 construct: Following incubation of I2.1 cells with the probe, irradiation to induce photocrosslinking; endogenous in cells; host or cells: I2.1 FADD-deficient Jurkat T cells (ATCC, CRL-2572)
T1 sequence (Q13546 1-671): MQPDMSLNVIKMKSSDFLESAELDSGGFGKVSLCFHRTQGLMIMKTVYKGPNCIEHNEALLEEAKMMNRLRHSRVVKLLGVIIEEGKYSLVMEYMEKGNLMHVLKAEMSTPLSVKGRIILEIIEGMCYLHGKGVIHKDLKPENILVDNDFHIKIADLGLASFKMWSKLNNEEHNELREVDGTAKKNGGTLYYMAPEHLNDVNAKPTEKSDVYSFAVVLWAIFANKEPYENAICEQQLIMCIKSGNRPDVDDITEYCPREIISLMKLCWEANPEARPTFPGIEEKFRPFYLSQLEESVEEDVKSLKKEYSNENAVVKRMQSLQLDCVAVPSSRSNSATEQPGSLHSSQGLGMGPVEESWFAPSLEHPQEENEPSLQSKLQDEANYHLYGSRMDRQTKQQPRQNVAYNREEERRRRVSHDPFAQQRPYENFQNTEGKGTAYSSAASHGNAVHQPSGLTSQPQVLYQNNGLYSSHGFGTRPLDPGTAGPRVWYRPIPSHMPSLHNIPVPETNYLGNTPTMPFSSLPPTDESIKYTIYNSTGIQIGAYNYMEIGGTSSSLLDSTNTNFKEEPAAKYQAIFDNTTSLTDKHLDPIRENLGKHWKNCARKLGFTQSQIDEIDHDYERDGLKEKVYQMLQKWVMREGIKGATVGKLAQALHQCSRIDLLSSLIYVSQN
Description: Target engagement was confirmed by Streptavidin mass shift assay, whereby lysates are incubated with streptavidin and subsequently separated by SDS–PAGE. The high stability of streptavidin at a range of temperatures, in various detergents and pH, in combination with the extremely high affinity for biotin means the streptavidin–biotin interaction is not separated during gel electrophoresis, resulting in a mass shift of biotin-labeled proteins in the presence of streptavidin, which can be visualized by Western blot (Figure a).
I2.1 cells were seeded in sterile six-well plates at a density of 2 × 10^6 cells per well and incubated at 37 °C overnight. 1000× stocks of the desired concentration of compound in DMSO were preprepared. […]
Cells were transferred to a microcentrifuge tube, centrifuged at 200g for 5 min, and media removed. […] Protein concentration was determined using the DC Protein Assay (Bio-Rad) in a 96-well plate as per the manufacturer’s instructions and the concentration adjusted to 1–2 mg mL^–1 using lysis buffer. […]
Samples were prepared by adding 4 μL of 4× loading buffer to 10 μL of the protein samples and boiling at 95 °C for 10 min. […] In-gel fluorescence was detected by using a Typhoon FLA 9500 biomolecular imager (750 V, 100 μm pixels). […]

recombinant hRIPK1 = molecular target: T2, recombinant hRIPK1 (Homo sapiens, UniProt Q13546); test: ADP-Glo kinase assay; assay type: biochemical; details: for IC50: GST-RIPK1 75 nM
T2 construct: Th (between GST and residue 1); purchased BPS Bioscience 40371
T2 sequence (Q13546 1-327): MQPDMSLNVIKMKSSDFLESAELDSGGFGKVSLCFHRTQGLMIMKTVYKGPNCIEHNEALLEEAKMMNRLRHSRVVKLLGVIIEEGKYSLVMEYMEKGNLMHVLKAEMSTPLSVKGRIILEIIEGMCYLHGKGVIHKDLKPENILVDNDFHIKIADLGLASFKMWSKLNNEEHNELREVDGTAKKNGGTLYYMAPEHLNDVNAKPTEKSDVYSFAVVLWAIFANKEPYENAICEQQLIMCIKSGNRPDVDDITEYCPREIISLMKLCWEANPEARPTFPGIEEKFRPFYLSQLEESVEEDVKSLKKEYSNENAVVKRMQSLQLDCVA
Description: Compound potency and mode of inhibition against RIPK1 kinase activity were determined by using an ADP-Glo kinase assay (Promega). The assay was carried out in accordance with the manufacturer’s protocol. The initial kinase reaction was performed by incubating recombinant hRIPK1 (GST-Th-1-327 from BPS Bioscience ref 40371, 75 nM) with the inhibitor (0–100 μM) and ATP (0–500 μM) for 4 h at 24 °C in kinase assay buffer (50 mM HEPES pH 7.5, 50 mM NaCl, 30 mM MgCl2, 0.5 mg mL^–1 BSA, 0.02% CHAPS, and 4 mM DTT). Following this reaction, ADP-Glo Reagent and Kinase Detection Reagent were successively added and incubated for 1 and 0.5 h at 24 °C, respectively. A […] (kinase assay reaction/ADP-Glo Reagent/Kinase Detection Reagent) volume ratio of the kit’s components was used. Bioluminescence was measured on a Varioskan LUX multimode microplate reader with SkanIt Software. Experiments were conducted in triplicate. Concentration response curves and IC50 values were generated from nonlinear regression fits performed on GraphPad Prism 9.1.1. Additionally, the produced ADP concentration values were divided by the kinase reaction incubation time to calculate reaction velocity values and generate velocity curves. Velocity curves were fitted in Michaelis–Menten model on GraphPad Prism 9.1.1 to calculate the maximum velocity (v max) and Michaelis–Menten constant (K M) parameters.

Question: Which results are given for `CN1C(=O)C(Cc2c[nH]c3ccccc23)NC1=S` (stereo not shown) [Nec-1, Necrostatin 1]?
Answer: 7PQYnD-mediated RIPK1 streptavidin band shift after pretreatment with competitor (RIPK1): retained; IC50 (recombinant hRIPK1; ATP concentration 10 μM): 2.7 µM; IC50 (recombinant hRIPK1; ATP concentration 500 μM): 8.1 µM; mode of inhibition with respect to ATP (recombinant hRIPK1; ATP concentrations 10–500 μM): competition with ATP
